According to patent publication EP3683219A1, “COMPOUND INHIBITING BUTYRYLCHOLINESTERASE” (Julius-Maximilians-Universität Würzburg, priority 2019, dated 2020):

Tests used:
[1] = system: Aβ25-35-induced spontaneous alternation deficits; test: Spontaneous alternation test in the Y-maze, Aβ25-35-injected mice; format: in vivo, male Swiss mice; conditions: for prevention of the effects of Aβ injection, both behavioral parameters: dose of 1 or 3 mg/kg ip, Y-maze and passive avoidance; for dose active on Aβ25-35-induced spontaneous alternation deficits: ip o.d. day 1 to 7, Y-maze day 8
Procedure: 2013, 38, pages 1706-1723.
AD-like cognitive dysfunctions were induced in male Swiss mice, 6 weeks old, weighing 31-36 g by intracerebroventricular (icv) injection of the oligomerized Aβ25-35 peptide into the mouse brain on day 1.
Compounds were weighed, dissolved in pure DMSO at a concentration of 1 mg/ml and diluted into final test concentrations with saline. The final percentage of DMSO in saline was 60% for all compounds. Vehicle solution used for control groups was 60% DMSO in saline. Compounds were injected intraperitoneally (ip) from day 1 to 7 and behavioral studies were conducted between day 8 and 10. Spatial working memory was evaluated using a spontaneous alternation test in a Y-maze on day 8. The Y-maze is made of grey polyvinylchloride. Each arm is 40 cm long, 13 cm high, 3 cm wide at the bottom, 10 cm wide at the top, and converging at an equal angle. Each mouse is placed at the end of one arm and allowed to explore the maze freely for 8 min. The sequence of arm entries (including possible returns into the same arm) was checked visually and noted down. If the mouse enters all three arms on consecutive occasion, this is defined as an alternation. Therefore, the total number of arm entries minus two is also the maximum number of alternations. The percentage of alternation was calculated as (actual alternations / maximum alternations) x 100. Parameters for the evaluation of behavior are given as the percentage of alternation (memory index) and a total number of arm entries (exploration index).
Figs. 7a-h show the effect of the compounds on Aβ25-35-induced spontaneous alternation deficits in mice. […] Figs. 7a, c, e, g: spontaneous alternation performance; Figs. 7b, d, f, h: number of arm entries in the Y-maze test performed at day 8.

hBChE [2] = target: T1, hBChE (Homo sapiens, UniProt P06276); test: Decarbamoylation from hBChE, dilution experiments (recovery of enzyme activity, k4); format: biochemical; conditions: decarbamoylation rate, after 1 h incubation and 1:1000 dilution
T1 sequence (P06276 29-602): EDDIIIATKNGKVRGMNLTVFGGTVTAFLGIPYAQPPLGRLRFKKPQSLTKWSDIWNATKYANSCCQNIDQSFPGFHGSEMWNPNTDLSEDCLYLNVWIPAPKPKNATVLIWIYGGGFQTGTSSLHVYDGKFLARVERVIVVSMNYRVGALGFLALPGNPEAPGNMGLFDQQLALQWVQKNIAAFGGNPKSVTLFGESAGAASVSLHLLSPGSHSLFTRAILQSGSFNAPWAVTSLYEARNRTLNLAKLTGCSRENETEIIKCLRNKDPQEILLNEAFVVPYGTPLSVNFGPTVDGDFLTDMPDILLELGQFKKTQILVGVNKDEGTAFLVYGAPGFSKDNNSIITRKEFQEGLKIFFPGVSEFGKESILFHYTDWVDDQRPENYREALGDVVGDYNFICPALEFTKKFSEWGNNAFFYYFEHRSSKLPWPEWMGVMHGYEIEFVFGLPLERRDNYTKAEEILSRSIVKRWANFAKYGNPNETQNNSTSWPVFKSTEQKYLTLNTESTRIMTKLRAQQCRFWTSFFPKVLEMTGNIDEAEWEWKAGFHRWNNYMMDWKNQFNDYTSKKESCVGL
Procedure: To further investigate the presence and nature of a peripheral binding site, also the hydrolysis of carbamate and the resulting release of the inhibitor from the enzyme was investigated by measuring the time dependent recovery of enzyme activity. To measure the decarbamoylation rate k4, dilution experiments were performed with hBChE following the procedure described in Sawatzky, E. et al., ChemMedChem 2016, 11, 1540-1550 and in Bartolucci, C. et al., Biochem. J. 2012, 444, 269-277. A high concentration of enzyme and inhibitor where incubated for 1 h. The concentration of inhibitor was chosen, such that > 85% of hBChE was inhibited through carbamate transfer. Then the mixture was diluted with buffer 1:1000 to a concentration at which the enzyme is not further carbamoylated. Due to the hydrolysis and release of the carbamate from the catalytic active serine enzyme activity was recovered slowly. This regeneration of the enzyme was monitored at different time points after the dilution. […] A = (1−e^(k4 ⋅t))⋅(1−A0) + A0 [formula] Table 4. Kinetic values for decarbamoylation from hBChE of selected compounds

hBChE [3] = target: T1, hBChE; test: Carbamoylation kinetics on hBChE (time-dependent inhibition, Kc and k3); format: biochemical; conditions: for k3 [min^-1] hBChE: carbamoylation rate constant; for Kd: carbamoylation, pre-equilibrium constant
Description: As carbamate based inhibitors (C-X) show a pseudo irreversible manner of binding, the IC50 values must be seen critically because two chemical reactions determine them: Carbamate (C) transfer onto the enzyme (E) and carbamate hydrolysis. So, the Kc values, k3 and k4 rate constants according to below formula were investigated for some representative compounds (c.f. Fig. 3 and Fig. 4). [formula]
The mechanism of enzyme inhibition can be divided into three steps: In a pre-equilibrium, the carbamate based inhibitor C-X is bound to the enzyme E and a complex (EC-X) is formed reversible and can be characterized with Kc. Then the carbamate C is transferred onto the enzyme E and binds covalently to form E-C with the rate constant k3 while carrier scaffold X is released. Then E-C is hydrolyzed and enzyme activity is recovered and the amine C' is released with the rate constant k4, also called decarbamoylation rate.
For the determination of Kc and k3 a similar experimental setup was used compared to the evaluation of IC50 values, whereas enzyme activity was measured at various time points after addition of inhibitor.
A = A0 ⋅e^(−kobs ⋅t) + A∞ [formula]
Plotting the enzyme activity (in %) against the incubation times, lead to nonlinear time-dependent inhibition curves for the respective inhibitor concentrations whereby kobs can be determined with an exponential fit correspondent to equation (I).
Furthermore, a hyperbolic curve is obtained, plotting the rate constant kobs against the inhibitor concentration [I], which is described by equation (II), with the substrate concentration [S] and the Michaelis-Menten constant KM. kobs = (k3 ⋅[I])/(KC ⋅(1+([S])/(KM)) + [I]) [formula]
This equation (II) can be rearranged to the reciprocal of kobs, to get a linear plot: (1)/(kobs) = (KC ⋅(1+([S])/(KM)))/(k3)⋅(1)/([I]) + (1)/(k3) [formula]
Since the substrate butyrylthiocholine iodide is not added directly to the enzyme and the inhibitor, but after the incubation of enzyme with inhibitor, [S] can be set to zero, leading to Michaelis-Menten like equation IV. (1)/(kobs) = (KC)/(k3)⋅(1)/([I]) + (1)/(k3) [formula]
Relating to the linear equation (IV), KC can be established from the slope and carbamoylation rate constant k3 from the y-intercept.
As a chemical reaction is taking place, Kc must be seen as a 'real' measure for quantification of enzyme inhibitor interactions. Due to the high costs in measurements on hBChE only some representative compounds were chosen to evaluate also in kinetic studies based on the results from IC50 measurements (table 3). Table 3. Kinetic values for carbamoylation on hBChE for selected representative compounds

hAChE = hAChE (Homo sapiens, UniProt P22303); test: Ellman's colorimetric assay, inhibition of hAChE; format: biochemical
hAChE, sequence (P22303 32-614): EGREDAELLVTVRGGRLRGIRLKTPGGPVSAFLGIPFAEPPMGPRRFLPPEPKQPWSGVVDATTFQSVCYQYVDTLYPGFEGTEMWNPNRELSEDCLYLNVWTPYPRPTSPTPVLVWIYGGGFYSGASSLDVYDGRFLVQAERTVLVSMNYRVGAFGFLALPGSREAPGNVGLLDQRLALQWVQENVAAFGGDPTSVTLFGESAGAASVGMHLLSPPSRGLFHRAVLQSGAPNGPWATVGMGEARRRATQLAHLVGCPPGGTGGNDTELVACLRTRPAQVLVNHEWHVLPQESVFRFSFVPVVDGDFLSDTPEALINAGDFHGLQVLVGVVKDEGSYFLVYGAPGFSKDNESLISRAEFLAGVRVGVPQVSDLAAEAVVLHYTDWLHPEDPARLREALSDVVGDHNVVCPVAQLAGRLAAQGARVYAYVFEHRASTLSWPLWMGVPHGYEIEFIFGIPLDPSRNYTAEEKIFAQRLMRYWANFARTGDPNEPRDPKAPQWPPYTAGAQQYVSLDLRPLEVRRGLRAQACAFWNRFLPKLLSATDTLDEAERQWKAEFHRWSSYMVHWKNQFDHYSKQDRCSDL
Procedure: (§1) For evaluation of enzyme inhibition, Ellman's colorimetric assay was conducted as described in Ellman, G. L., Arch. Biochem. Biophys 1958, 74, 443-450 and Ellman, G. L. et al., Biochem. Pharmacol. 1961, 7, 88-95. Therefor, 5,5'-dithiobis-(2-nitrobenzoic acid) (DTNB) solution, respective Cholinesterase (ChE) and inhibitor were incubated together and enzyme activity was measured after 20 min. The long incubation time was needed to allow the carbamate transfer between ChE and inhibitor.
(§2) The carbamate residue was altered systematically by changing residues in the terminal position of carbamate moiety and different flexible alkylene linkers were introduced. […] Nevertheless, it must be noted that IC50 values only serve as a first indicator of inhibitor affinity and selectivity. Due to the chemical reaction of carbamate transfer the enzyme inhibition is strongly time dependent. […]

hBChE [4] = target: T1, hBChE; test: biochemical; format: biochemical; conditions: for plC50 ± SEM (hBChE) / IC50: enzyme activity measured after 20 min incubation; for IC50: read-out: IC50 hBChE; for Selectivity index (IC50 hAChE/IC50 hBChE): hAChE over hBChE
Procedure: as §1, §2

[5] = system: Aβ25-35-induced passive avoidance impairments; test: Step-through passive avoidance test, Aβ25-35-injected mice; format: in vivo, male Swiss mice; conditions: 0.3-3 mg/kg ip o.d. day 1 to 7; retention day 10

Row | SMILES | prevention of the effects of Aβ injection, both behavioral parameters [1] | dose active on Aβ25-35-induced spontaneous alternation deficits [1] [mg/kg ip] | k4 (hBChE [2]) [h⁻¹] | k3 [min^-1] hBChE (hBChE [3]) [min⁻¹] | Kd (hBChE [3]) [nM] | inhibition at 100 µM (hAChE; 100 µM, read-out: inhibition of hAChE) [%] | fold lower activity than heptyl carbamate 7 (IC50 hBChE) (hBChE [4]; compared with compound 7) | plC50 ± SEM (hBChE) (hBChE [4]) | IC50 (hBChE [4]) [nM] | Selectivity index (IC50 hAChE/IC50 hBChE) (hBChE [4]) | effect on Aβ25-35-induced passive avoidance deficits (step-through latency, retention) [5] | Kc values (hBChE), in words (hBChE [3]) | inhibition at 10 µM (hAChE; 10 µM) [%]
1 | CN1c2ccc(OC(=O)NCCCCCCN3CCOCC3)cc2CN2CCc3ccccc3C21 (stereo not shown) [Compound 19d] | fully prevented the effects of Aβ injection | 0.3 | 0.042 ± 0.004 | 0.16 ± 0.02 | 202 ± 55 | 45 | approximately 10 fold | 7.31 ± 0.02 | 49.3 | >1000 | effective at the 3 doses tested | – | –
2 | CN1c2ccc(OC(=O)NCCCCCCN3CCc4ccccc4C3)cc2CN2CCc3ccccc3C21 (stereo not shown) [Compound 19j] | fully prevented the effects of Aβ injection | 1 | 0.025 ± 0.001 | 0.18 ± 0.02 | 3.6 ± 2.9 | – | – | 7.57 ± 0.05 | 26.7 | >1000 | effective at the 3 doses tested | one-digit nanomolar range | 9
